According to patent US20050124562A1, “Bis-quinazoline compounds for the treatment of bacterial infections” (priority 2003, published 2005):
Values after ≈ are worked out from the molar mass of the structure shown.

Each compound was assayed on S. aureus, E. faecalis, S. pyogenes and S. pneumoniae (assay: Broth microdilution MIC (NCCLS), gram-positive strains). Details: not given.
Format: cell-based
Method: Representative bis-quinazolines were tested for antibacterial activity using the […] microdilution method to determine their minimum inhibitory concentrations (MICs). All compounds were tested using standard methods in accordance with NCCLS guidelines (National Committee for Clinical Laboratory Standards. 2003. Methods for dilution antimicrobial susceptibility testing for bacteria that grow aerobically. Approved Standard M-7 A-6, NCCLS, Wayne, Pa.). The bacterial strains used in the susceptibility tests were obtained from the American Type Culture Collection (ATCC) and included resistant phenotypes such as oxacillin-resistant S. aureus (ORSA) and vancomycin-resistant enterococci (VRE). The minimum bactericidal concentrations (MBCs) were determined for selected organisms. The effect of protein binding on the antibacterial activity of representative bis-quinazolines were determined by conducting MIC tests in the presence of human serum.

Compound | MIC
COc1ccc2nc(Nc3nc(O)c4cccc(OC)c4n3)nc(C)c2c1 [Example 10, 8-Methoxy-2-(6-methoxy-4-methyl-quinazolin-2-ylamino)-quinazolin-4-ol] | 0.06 to 16 mg/L (≈ 0.165 to 44 µM)
COc1cc(OC)c2nc(Nc3nc(O)c4cccc(OC)c4n3)nc(C)c2c1 [Example 11, 2-(6,8-Dimethoxy-4-methyl-quinazolin-2-ylamino)-8-methoxy-quinazolin-4-ol] | 0.06 to 16 mg/L (≈ 0.153 to 40.7 µM)
CCOc1cccc2nc(Nc3nc(C)c4cc(OC)c(OC)cc4n3)nc(O)c12 [Example 13, 2-(6,7-Dimethoxy-4-methyl-quinazolin-2-ylamino)-5-ethoxy-quinazolin-4-ol] | 0.06 to 16 mg/L (≈ 0.147 to 39.3 µM)
Cc1nc(Nc2nc(O)c3ccccc3n2)nc2cc3c(cc12)OCO3 [Example 15, 2-(8-Methyl-[1,3]dioxolo[4,5-g]quinazolin-6-ylamino)-quinazolin-4-ol] | 0.06 to 16 mg/L (≈ 0.173 to 46.1 µM)
Cc1nc(Nc2nc(O)c3ccccc3n2)nc2ccc(O)cc12 [Example 16, 2-(4-Hydroxy-quinazolin-2-ylamino)-4-methyl-quinazolin-6-ol] | 0.06 to 16 mg/L (≈ 0.188 to 50.1 µM)
COc1ccc2nc(Nc3nc(O)c4cccc(C)c4n3)ncc2c1 [Example 20, 2-(6-Methoxy-quinazolin-2-ylamino)-8-methyl-quinazolin-4-ol] | 0.06 to 16 mg/L (≈ 0.18 to 48 µM)
COc1cccc2c(C)nc(Nc3nc(O)c4cc(C)cc(C)c4n3)nc12 [Example 48, 2-(8-Methoxy-4-methyl-quinazolin-2-ylamino)-6,8-dimethyl-quinazolin-4-ol] | 0.06 to 16 mg/L (≈ 0.166 to 44.3 µM)
CCc1nc(Nc2nc(O)c3ccccc3n2)nc2ccc(OC)cc12 [Example 49, 2-(4-Ethyl-6-methoxy-quinazolin-2-ylamino)-quinazolin-4-ol] | 0.06 to 16 mg/L (≈ 0.173 to 46.1 µM)
COc1cccc2c(C)nc(Nc3nc(O)c4cccc(C)c4n3)nc12 [Example 51, 2-(8-Methoxy-4-methyl-quinazolin-2-ylamino)-8-methyl-quinazolin-4-ol] | 0.06 to 16 mg/L (≈ 0.173 to 46.1 µM)
COc1cc2nc(Nc3nc(O)c4ccccc4n3)nc(C)c2cc1OC [Example 52, 2-(6,7-Dimethoxy-4-methyl-quinazolin-2-ylamino)-quinazolin-4-ol] | 0.06 to 16 mg/L (≈ 0.165 to 44 µM)
COc1cccc2c(C)nc(Nc3nc(O)c4ccccc4n3)nc12 [Example 58, 2-(8-Methoxy-4-methyl-quinazolin-2-ylamino)-quinazolin-4-ol] | 0.06 to 16 mg/L (≈ 0.18 to 48 µM)
CCOc1cccc2c(C)nc(Nc3nc(O)c4ccccc4n3)nc12 [Example 59, 2-(8-Ethoxy-4-methyl-quinazolin-2-ylamino)-quinazolin-4-ol] | 0.06 to 16 mg/L (≈ 0.173 to 46.1 µM)
COc1ccc2nc(Nc3nc(O)c4cc(O)ccc4n3)nc(C)c2c1 [Example 60, 2-(6-Methoxy-4-methyl-quinazolin-2-ylamino)-quinazoline-4,6-diol] | 0.06 to 16 mg/L (≈ 0.172 to 45.8 µM)
COc1ccc2nc(Nc3nc(O)c4cc(OC)ccc4n3)nc(C)c2c1 [Example 61, 6-Methoxy-2-(6-methoxy-4-methyl-quinazolin-2-ylamino)-quinazolin-4-ol] | 0.06 to 16 mg/L (≈ 0.165 to 44 µM)
COc1ccc2nc(Nc3nc(O)c4cc(OC)c(OC)cc4n3)nc(C)c2c1 [Example 62, 6,7-Dimethoxy-2-(6-methoxy-4-methyl-quinazolin-2-ylamino)-quinazolin-4-ol] | 0.06 to 16 mg/L (≈ 0.153 to 40.7 µM)
COc1ccc2nc(Nc3nc(O)c4cc(C)ccc4n3)nc(C)c2c1 [Example 63, 2-(6-Methoxy-4-methyl-quinazolin-2-ylamino)-6-methyl-quinazolin-4-ol] | 0.06 to 16 mg/L (≈ 0.173 to 46.1 µM)
COc1ccc2nc(Nc3nc(O)c4cccc(C)c4n3)nc(C)c2c1 [Example 65, 2-(6-Methoxy-4-methyl-quinazolin-2-ylamino)-8-methyl-quinazolin-4-ol] | 0.06 to 16 mg/L (≈ 0.173 to 46.1 µM)

Same assay, conditions: range against some strains of S. aureus, E. faecalis, S. pyogenes and S. pneumoniae; read-out: MIC

Compound | MIC
COc1ccc2nc(Nc3nc(O)c4cc(N)cc(C)c4n3)nc(C)c2c1.O=C(O)C(F)(F)F [Example 22, 6-Amino-2-(6-methoxy-4-methyl-quinazolin-2-ylamino)-8-methyl-quinazolin-4-ol trifluoroacetate salt] | 0.06 to 16 mg/L
COc1ccc([N+](=O)[O-])c2c(C)nc(Nc3nc(O)c4ccccc4n3)nc12.O=C(O)C(F)(F)F [Example 26, 2-(8-Methoxy-4-methyl-5-nitro-quinazolin-2-ylamino)-quinazolin-4-ol trifluoroacetate salt] | 0.06 to 16 mg/L
COc1ccc(OC)c2c(C)nc(Nc3nc(O)c4ccccc4n3)nc12.O=C(O)C(F)(F)F [Example 27, 2-(5,8-Dimethoxy-4-methyl-quinazolin-2-ylamino)-quinazolin-4-ol trifluoroacetate salt] | 0.06 to 16 mg/L
COc1ccc([N+](=O)[O-])c2c(C)nc(Nc3nc(O)c4cc(C)cc(C)c4n3)nc12.O=C(O)C(F)(F)F [Example 30, 2-(8-Methoxy-4-methyl-5-nitro-quinazolin-2-ylamino)-6,8-dimethyl-quinazolin-4-ol, trifluoroacetate salt] | 0.06 to 16 mg/L
COc1cc2c(C)nc(Nc3nc(O)c4ccccc4n3)nc2cc1F.O=C(O)C(F)(F)F [Example 32, 2-(7-Fluoro-6-methoxy-4-methyl-quinazolin-2-ylamino)-quinazolin-4-ol trifluoroacetate salt] | 0.06 to 16 mg/L
CSc1ccc2nc(Nc3nc(O)c4ccccc4n3)nc(C)c2c1.O=C(O)C(F)(F)F [Example 35, 2-(4-Methyl-6-methylsulfanyl-quinazolin-2-ylamino)-quinazolin-4-ol trifluoroacetate salt] | 0.06 to 16 mg/L
COc1ccc2nc(Nc3nc(O)c4c(OC)cccc4n3)nc(C)c2c1.O=C(O)C(F)(F)F [Example 37, 5-Methoxy-2-(6-methoxy-4-methyl-quinazolin-2-ylamino)-quinazolin-4-ol trifluoroacetate salt] | 0.06 to 16 mg/L
COc1cc2nc(Nc3nc(O)c4cc(C)cc(C)c4n3)nc(C)c2cc1OC.O=C(O)C(F)(F)F [Example 41, 2-(6,7-Dimethoxy-4-methyl-quinazolin-2-ylamino)-6,8-dimethyl-quinazolin-4-ol trifluoroacetate salt] | 0.06 to 16 mg/L
COc1ccc(OC)c2c(C)nc(Nc3nc(O)c4cc(C)cc(C)c4n3)nc12.O=C(O)C(F)(F)F [Example 43, 2-(5,8-Dimethoxy-4-methyl-quinazolin-2-ylamino)-6,8-dimethyl-quinazolin-4-ol trifluoroacetate salt] | 0.06 to 16 mg/L
CC(=O)O.COc1cc2c(C)nc(Nc3nc(O)c4cc(C)cc(C)c4n3)nc2cc1F [Example 44, 2-(7-Fluoro-6-methoxy-4-methyl-quinazolin-2-ylamino)-6,8-dimethyl-quinazolin-4-ol acetate salt] | 0.06 to 16 mg/L
COc1ccc2nc(Nc3nc(O)c4ccccc4n3)nc(CF)c2c1.O=C(O)C(F)(F)F [Example 45, 2-(4-Fluoromethyl-6-methoxy-quinazolin-2-ylamino)-quinazolin-4-ol trifluoroacetate salt] | 0.06 to 16 mg/L
COc1cc(OC)c2nc(Nc3nc(O)c4cccc(C)c4n3)nc(C)c2c1.O=C(O)C(F)(F)F [Example 46, 2-(6,8-Dimethoxy-4-methyl-quinazolin-2-ylamino)-8-methyl-quinazolin-4-ol trifluoroacetate salt] | 0.06 to 16 mg/L
COc1ccc2nc(Nc3nc(O)c4cc(N)ccc4n3)nc(C)c2c1.O=C(O)C(F)(F)F [Example 47, 6-Amino-2-(6-methoxy-4-methyl-quinazolin-2-ylamino)-quinazolin-4-ol trifluoroacetate salt] | 0.06 to 16 mg/L
COc1cc(OC)c2nc(Nc3nc(O)c4cc([N+](=O)[O-])cc(C)c4n3)nc(C)c2c1.O=C(O)C(F)(F)F [Example 67, 2-(6,8-Dimethoxy-4-methyl-quinazolin-2-ylamino)-8-methyl-6-nitro-quinazolin-4-ol trifluoroacetate salt] | 0.06 to 16 mg/L
COc1cccc2c(C)nc(Nc3nc(O)c4cc([N+](=O)[O-])cc(C)c4n3)nc12.O=C(O)C(F)(F)F [Example 68, 2-(8-Methoxy-4-methyl-quinazolin-2-ylamino)-8-methyl-6-nitro-quinazolin-4-ol trifluoroacetate salt] | 0.06 to 16 mg/L
COCCOc1ccc2nc(Nc3nc(O)c4cc([N+](=O)[O-])cc(C)c4n3)nc(C)c2c1.O=C(O)C(F)(F)F [Example 69, 2-[6-(2-Methoxy-ethoxy)-4-methyl-quinazolin-2-ylamino]-8-methyl-6-nitro-quinazolin-4-ol trifluoroacetate salt] | 0.06 to 16 mg/L
COCCOc1ccc2nc(Nc3nc(O)c4cc(N)cc(C)c4n3)nc(C)c2c1.O=C(O)C(F)(F)F [Example 70, 6-Amino-2-[6-(2-methoxy-ethoxy)-4-methyl-quinazolin-2-ylamino]-8-methyl-quinazolin-4-ol trifluoroacetate salt] | 0.06 to 16 mg/L
COc1ccc2nc(Nc3nc(O)c4cccc(O)c4n3)nc(C)c2c1.O=C(O)C(F)(F)F [Example 71, 2-(6-Methoxy-4-methyl-quinazolin-2-ylamino)-quinazoline-4,8-diol trifluoroacetate salt] | 0.06 to 16 mg/L
COc1cccc2c(C)nc(Nc3nc(O)c4cccc(O)c4n3)nc12.O=C(O)C(F)(F)F [Example 72, 2-(8-Methoxy-4-methyl-quinazolin-2-ylamino)-quinazoline-4,8-diol trifluoroacetate salt] | 0.06 to 16 mg/L
COc1ccc2c(C)nc(Nc3nc(O)c4cc(C)cc(C)c4n3)nc2c1OC.O=C(O)C(F)(F)F [Example 73, 2-(7,8-Dimethoxy-4-methyl-quinazolin-2-ylamino)-6,8-dimethyl-quinazolin-4-ol trifluoroacetate salt] | 0.06 to 16 mg/L
COc1ccc2c(C)nc(Nc3nc(O)c4ccccc4n3)nc2c1OC.O=C(O)C(F)(F)F [Example 74, 2-(7,8-Dimethoxy-4-methyl-quinazolin-2-ylamino)-quinazolin-4-ol trifluoroacetate salt] | 0.06 to 16 mg/L
